The NIST ThermoML archive (doi:10.1021/acs.jced.5b00552)
± gives the expanded uncertainty stated by the source.

Assay: xn = mol fraction of the nth substance listed
Details: 100 kPa, Liquid, Vibrating tube method

Cc1ncc(CO)c(CO)c1O.Cl [5-hydroxy-6-methyl-3,4-pyridinedimethanol hydrochloride] + O
mass density (293.15 K, x1 = 0.01626): 1093.5 ± 6.3 kg/m3
mass density (298.15 K, x1 = 0.01886): 1104.7 ± 6.4 kg/m3
mass density (303.15 K, x1 = 0.02222): 1111 ± 6.5 kg/m3
mass density (308.15 K, x1 = 0.02522): 1120.8 ± 6.6 kg/m3
mass density (313.15 K, x1 = 0.02666): 1133.3 ± 7 kg/m3
mass density (318.15 K, x1 = 0.02818): 1141.5 ± 6.8 kg/m3
mass density (323.15 K, x1 = 0.0329): 1154.6 ± 7.1 kg/m3
